Read-outs that look alike come from different tables or passages of the source. Marks after values point to notes of the source that are not given here. Each block holds one molecule with its values, some of them ahead of it.
Columns and labels:
[1] = system: Calu-6 human non-small cell lung cancer xenograft; parameters: method as in earlier work; details: AZD6244 3 mg/kg BD; AZD2171 […] QD; ref IB; cited from earlier work
[2] = parameters: method as in earlier work; details: twice-daily oral dosing in SBE-CD, monkeys; no notable gastrointestinal tract or renal pathology; ref IB; cited from earlier work
[3] = cited from earlier work
[4] = ref Study D1532C00005, cited from earlier work
[5] = system: SW620 human colorectal cancer xenograft; parameters: method as in earlier work; details: ref IB, cited from earlier work
[6] = system: HCT-116 human colorectal cancer xenograft; parameters: method as in earlier work; details: AZD6244 25 m/kg BD; docetaxel 15 mg/kg once weekly; ref IB; cited from earlier work
[7] = parameters: method as in product label; details: ref product label, cited from earlier work
[8] = parameters: method as in product label; details: ref product label, cited from earlier work; remark: listed apart in the source
[9] = Pharmacokinetics alone and in combination, selumetinib + erlotinib arm
[10] = Pharmacokinetics alone and in combination, selumetinib + temsirolimus arm; format: in vivo, human; details: human, plasma, iv; for AUC(0-t) / AUC(0–12) / Cmax: geometric mean (% CV); for AUC(0-t): read-out: AUC(0–8); for AUC(0–12): read-out: AUC(0–12); for Cmax: read-out: Cmax; for tmax: median (range), read-out: tmax
[11] = system: Lovo colorectal cancer xenograft; parameters: method as in earlier work; details: rapamycin experiment, usual monotherapy schedules, doses not given; ref IB; cited from earlier work
[12] = AZD6244 25 mg/kg BD, irinotecan 25 mg/kg once weekly, docetaxel 15 mg/kg once weekly
[13] = NSCLC patients, single-agent erlotinib 150 mg
[14] = geometric mean, QD cohorts, dosed alone, selumetinib 150 mg cohort (N = 13), erlotinib 100 mg QD
[15] = dosed alone, selumetinib 50 mg cohort (N = 25), temsirolimus 25 mg IV
[16] = dosed alone, selumetinib 75 mg cohort (N = 6), temsirolimus 25 mg IV
[17] = dosed in combination, selumetinib 50 mg BID (N = 22) + temsirolimus 25 mg IV
[18] = dosed in combination, selumetinib 75 mg BID (N = 5) + temsirolimus 25 mg IV

SMILES: COc1cc2c(Oc3ccc4[nH]c(C)cc4c3F)ncnc2cc1OCCCN1CCCC1 [AZD2171, reference compound]
Tumor growth inhibition as a % of control [1]: 49.6 % of control

SMILES: Cn1cnc2c(F)c(Nc3ccc(Br)cc3Cl)c(C(=O)NOCCO)cc21 [AZD6244 Hyd-Sulfate]
toxicity findings [2]: fluid and/or red colored feces | toxicity findings, 6-month study ([3]; male mice dosed 8–15 weeks at the high dose level, ref IB): dilation of the corpus spongiosum | tissue mineralization ([3]; mice dosed for up to one month, ref IB): multiple tissues (cornea, kidney, liver, myocardium, skeletal muscle, glandular stomach) | toxicity findings at non-tolerated dose levels ([3]; mouse, in vivo, po): gastrointestinal tract toxicity and hematopoietic atrophy | DLT in the first 22 days of dosing ([4]; 75 mg BD cohort, one DLT): CTCAE Grade 3 fatigue | DLTs in the first 22 days of dosing ([4]; 100mg BD cohort, two DLTs): pleural effusion and rash (both CTC AE Grade 3) | maximum tolerated dose ([4]; capsule formulation): 75 mg BD

SMILES: CC(=O)O[C@@]12CO[C@@H]1C[C@H](O)[C@@]1(C)C(=O)[C@H](O)C3=C(C)[C@@H](OC(=O)[C@H](O)[C@@H](NC(=O)OC(C)(C)C)c4ccccc4)C[C@@](O)([C@@H](OC(=O)c4ccccc4)[C@H]21)C3(C)C [Docetaxel]
Tumor growth inhibition as a % of control [5, 12]: 12 % of control | Tumor growth inhibition as a % of control [6]: 93.4 % of control | severe neurosensory symptoms (paresthesia, dysesthesia, pain) ([7]; 53/965 metastatic breast cancer patients): 5.5% | treatment discontinuation due to severe neurosensory symptoms ([7]; metastatic breast cancer patients): 6.1%

SMILES: C#Cc1cccc(Nc2ncnc3cc(OCCOC)c(OCCOC)cc23)c1 [Erlotinib, reference compound]
Grade 3/4 diarrhea [8, 13]: 6% | Grade 3/4 rash [8, 13]: 9% | median time to onset of diarrhea [8, 13]: 12 days | median time to onset of rash [8, 13]: 8 days | patients needing dose reduction for diarrhea [8, 13]: 1% | patients needing dose reduction for rash [8, 13]: Six | study discontinuation due to diarrhea [8, 13]: 1% | study discontinuation due to rash [8, 13]: 1% | median time to start of ILD-like symptoms after initiating therapy ([8]; range 5 days to more than 9 months): 39 days | Cmax ([9]; geometric mean (% CV), dosed alone, selumetinib 50 mg cohort (N = 14), erlotinib 100 mg QD): 1681 (27.13) [13] ng/mL | Cmax ([9]; geometric mean (% CV), dosed in combination, selumetinib 50 mg BID (N = 12) + erlotinib 100 mg QD): 1725 (30.11) ng/mL | Cmax ([9]; geometric mean (% CV), dosed in combination, selumetinib 75 mg BID (N = 6) + erlotinib 100 mg QD): 1739 (39.86) ng/mL | Cmax ([9]; geometric mean, QD cohorts, dosed alone, selumetinib 100 mg cohort (N = 6), erlotinib 100 mg QD): 1180 ng/mL | AUC(0–8) [9, 14]: 12,710^c ng•h/mL | Cmax [9, 14]: 1980^c ng/mL | Cmax ([9]; geometric mean, QD cohorts, in combination, selumetinib 50 mg (N = 6) + erlotinib 100 mg QD): 1468^d ng/mL | tmax ([9]; human, plasma, oral): 1.5 h | tmax ([9]; human, plasma, oral, 100 mg): 1.5 h | AUC(0-t) ([9]; human, plasma, oral, 100 mg, AUC(0–8), geometric mean, QD cohorts, dosed alone, selumetinib 100 mg cohort (N = 6), erlotinib 100 mg QD): 7100 ng·h/mL | AUC(0-t) ([9]; human, plasma, oral, 100 mg, AUC(0–12), geometric mean, QD cohorts, dosed alone, selumetinib 100 mg cohort (N = 6), erlotinib 100 mg QD): 10300 ng·h/mL | AUC(0-t) ([9]; human, plasma, oral, AUC(0–8), geometric mean (% CV), dosed alone, selumetinib 50 mg cohort (N = 14), erlotinib 100 mg QD): 10100 ng·h/mL | AUC(0-t) ([9]; human, plasma, oral, AUC(0–8), geometric mean (% CV), dosed alone, selumetinib 75 mg cohort (N = 6), erlotinib 100 mg QD): 9590 ng·h/mL | AUC(0-t) ([9]; human, plasma, oral, AUC(0–8), geometric mean (% CV), dosed in combination, selumetinib 50 mg BID (N = 12) + erlotinib 100 mg QD): 10400 ng·h/mL | AUC(0-t) ([9]; human, plasma, oral, AUC(0–8), geometric mean (% CV), dosed in combination, selumetinib 75 mg BID (N = 6) + erlotinib 100 mg QD): 10400 ng·h/mL | AUC(0-t) ([9]; human, plasma, oral, AUC(0–8), geometric mean, QD cohorts, dosed alone, selumetinib 50 mg cohort (N = 7), erlotinib 100 mg QD): 9620 ng·h/mL | AUC(0-t) ([9]; human, plasma, oral, AUC(0–8), geometric mean, QD cohorts, in combination, selumetinib 50 mg (N = 6) + erlotinib 100 mg QD): 8600 ng·h/mL | AUC(0-t) ([9]; human, plasma, oral, AUC(0–8), geometric mean, QD cohorts, in combination, selumetinib 100 mg (N = 6) + erlotinib 100 mg QD): 8500 ng·h/mL | AUC(0-t) ([9]; human, plasma, oral, AUC(0–8), geometric mean, QD cohorts, in combination, selumetinib 150 mg (N = 12) + erlotinib 100 mg QD): 13000 ng·h/mL | AUC(0-t) ([9]; human, plasma, oral, AUC(0–12), geometric mean (% CV), dosed alone, selumetinib 50 mg cohort (N = 14), erlotinib 100 mg QD): 14500 ng·h/mL | AUC(0-t) ([9]; human, plasma, oral, AUC(0–12), geometric mean (% CV), dosed alone, selumetinib 75 mg cohort (N = 6), erlotinib 100 mg QD): 13800 ng·h/mL | AUC(0-t) ([9]; human, plasma, oral, AUC(0–12), geometric mean (% CV), dosed in combination, selumetinib 50 mg BID (N = 12) + erlotinib 100 mg QD): 14700 ng·h/mL | AUC(0-t) ([9]; human, plasma, oral, AUC(0–12), geometric mean (% CV), dosed in combination, selumetinib 75 mg BID (N = 6) + erlotinib 100 mg QD): 14700 ng·h/mL | AUC(0-t) ([9]; human, plasma, oral, AUC(0–12), geometric mean, QD cohorts, dosed alone, selumetinib 50 mg cohort (N = 7), erlotinib 100 mg QD): 14000 ng·h/mL | AUC(0-t) ([9]; human, plasma, oral, AUC(0–12), geometric mean, QD cohorts, dosed alone, selumetinib 150 mg cohort (N = 13), erlotinib 100 mg QD): 18300 ng·h/mL | AUC(0-t) ([9]; human, plasma, oral, AUC(0–12), geometric mean, QD cohorts, in combination, selumetinib 100 mg (N = 6) + erlotinib 100 mg QD): 12000 ng·h/mL | AUC(0-t) ([9]; human, plasma, oral, AUC(0–12), geometric mean, QD cohorts, in combination, selumetinib 150 mg (N = 12) + erlotinib 100 mg QD): 18600 ng·h/mL | Cmax ([9]; human, plasma, oral, Cmax, geometric mean (% CV), dosed alone, selumetinib 75 mg cohort (N = 6), erlotinib 100 mg QD): 1420 ng/mL | Cmax ([9]; human, plasma, oral, Cmax, geometric mean, QD cohorts, dosed alone, selumetinib 50 mg cohort (N = 7), erlotinib 100 mg QD): 1620 ng/mL | Cmax ([9]; human, plasma, oral, Cmax, geometric mean, QD cohorts, in combination, selumetinib 100 mg (N = 6) + erlotinib 100 mg QD): 1430 ng/mL | Cmax ([9]; human, plasma, oral, Cmax, geometric mean, QD cohorts, in combination, selumetinib 150 mg (N = 12) + erlotinib 100 mg QD): 2030 ng/mL | tmax ([9]; median (range), QD cohorts, dosed alone, selumetinib 150 mg cohort (N = 13), erlotinib 100 mg QD): 2.00 (1.00–6.00)^c h | tmax ([9]; median (range), QD cohorts, in combination, selumetinib 50 mg (N = 6) + erlotinib 100 mg QD): 4.00 (1.00–8.00)^d h | tmax ([9]; median (range), dosed alone, selumetinib 75 mg cohort (N = 6), erlotinib 100 mg QD): 3.0 (2.0–6.0) h | PK parameters when administered alone and in combination ([9]; selumetinib + erlotinib arm): similar

SMILES: CCc1c2c(nc3ccc(OC(=O)N4CCC(N5CCCCC5)CC4)cc13)-c1cc3c(c(=O)n1C2)COC(=O)[C@]3(O)CC [Irinotecan]
Tumor growth inhibition as a % of control [5, 12]: 67 % of control

AUC(0-t) [10, 15]: 341 ng·h/mL | AUC(0–12) [10, 15]: 514 ng·h/mL | Cmax [10, 15]: 58.5 ng/mL | AUC(0-t) [10, 16]: 266 ng·h/mL | AUC(0–12) [10, 16]: 382 ng·h/mL | Cmax [10, 16]: 49.5 ng/mL | AUC(0-t) [10, 17]: 394 ng·h/mL | AUC(0–12) [10, 17]: 584 ng·h/mL | Cmax [10, 17]: 67 ng/mL | AUC(0-t) [10, 18]: 292 ng·h/mL | AUC(0–12) [10, 18]: 360 ng·h/mL | Cmax [10, 18]: 51.2 ng/mL | tmax [10, 15]: 1.5 h | tmax [10, 16]: 2 h | tmax [10, 17]: 1.5 h | tmax [10, 18]: 2 h
SMILES: CO[C@H]1C[C@@H]2CC[C@@H](C)[C@@](O)(O2)C(=O)C(=O)N2CCCC[C@H]2C(=O)O[C@H]([C@H](C)C[C@@H]2CC[C@@H](O)[C@H](OC)C2)CC(=O)[C@H](C)/C=C(\C)[C@@H](O)[C@@H](OC)C(=O)[C@H](C)C[C@H](C)/C=C/C=C/C=C/1C [Sirolimus]
Tumor growth inhibition as a % of control [11]: 38 % of control

SMILES: Cn1nnc2c(C(N)=O)ncn2c1=O [Temozolamide]
Tumor growth inhibition as a % of control ([5]; temozolamide experiment, usual monotherapy schedules, doses not given): 15 % of control
